# Columns and labels:
# Format in all cases: cell-based, mouse
# caspase 3 = test: Caspase 3 colorimetric assay; settings: pH 7.4; apoptotic control
# Description: (§1) Caspase 8 and 3 colorimetric assays were performed on the N38 cells at all pH conditions. The assay was based on the detection of the chromophore pNA after cleavage from the labeled substrate IETD-pNA and DEVD-pNA for caspase 8 and 3, respectively. Comparison of the pNA absorbance from the suspected apoptotic sample was compared to the uninduced neutral pH sample. Caspase 8 and 3 were analysed using the Caspase-3 Colorimetric Activity Assay (Chemicon, Temecula USA) and Caspase-8 Colorimetric Activity Assay (Chemicon, Temecula USA). The cells from each pH treatment described previously at 24 and 48 hrs were removed using a cell scraper and centrifuged at 1500 rpm for 10 minutes. The cells were resuspended in 350 μl of chilled cell lysis buffer containing 500 μl PBS, 5 μl 1% Triton ×100 (Sigma, St. Louis), 25 μl proteinase inhibitor cocktail set III (VWR, Mississauga), 0.5 μM dithiothreitol (DTT) (Sigma, St. Louis) and 2.5 μl phenylmethylsulphonylfluoride (PMSF) diluted in 1 mL of methanol (EM Science, Gibbstown), then incubated on ice for 10 min and centrifuged for 5 minutes at 10,000 rpm. The supernatant, consisting of cytosolic extracts, was transferred to a new tube and a bicinchoninic acid (BCA) protein assay (Pierce, Rockford) was conducted to determine total protein concentration. The absorbance of each sample was measured on a SPECTRAmax Microplate spectrophotometer at 405 nm after an incubation period of 2 hours at 37° C. Changes in caspase 3 activity were determined by comparing the absorbance reading from the induced sample with the level of the uninduced control. Background readings from the buffer were subtracted from the reading of both the induced (pH 6.8, 8.0, 8.4) and uninduced (pH 7.4) samples before calculating changes in caspase 3 activity. The same was done for the detection of caspase 8. As a control, N38 cells were cultured with pH 7.4 DMEM and incubated for 4 days, apoptosis was then induced using 10 μM/ml etoposide and lysed according to the above protocol and used a control for all subsequent caspase 3 detection. All assays were performed with 4 replications.
# caspase 8 = test: Caspase 8 colorimetric assay; settings: pH 7.4; apoptotic control
# Description: as §1
# cleaved caspase 3 = test: Caspase 3 cleavage by immunoblot; settings: 48 hr; any pH condition for TCAP-1
# Description: Detection of caspase 3 cleavage was determined at 48 hrs. The samples at each pH and control (see above) were lysed using total protein isolation lysis buffer (described above). An aliquot of 25 μl of each sample was combined with 25 μl of 2×20% sodium dodecyl sulphate (SDS) sample buffer and loaded onto a 4-10% HCL-Tris pre cast polyacrylamide gel (BioRad, Mississauga). The gel was run at 200 v for 35 min and proteins were electrotransfered to a Hybond-C nitrocellulose membrane (Amersham, Baie d'Urfé) for 75 min at 100 v. After transfer, the membrane was washed with 10 ml of PBS with 0.05% Tween 20 (PBST) for 5 min at room temperature (RT) and the membrane was incubated in 10 ml of PBST-milk for one hour at RT followed by 3 times for 5 min washes with 10 ml of PBST. The membrane was then incubated with cleaved caspase 3 primary antibody (Cell Signaling Technology, Beverly) at a titre of 1:500 in 6 ml of PBST-milk with gentle agitation overnight at 4° C. The membranes were washed 3 times for 5 min with 10 ml of PBST followed by membrane incubation with anti-rabbit horseradish peroxidase (HRP)-conjugated secondary antibody (Amersham, Baie d'Urfé) at 1:3000 in 6 ml of PBST-milk with gentle agitation for 1 hr at RT. […]
smiles,measurement,setting,value
"COc1cc([C@@H]2c3cc4c(cc3[C@@H](O[C@@H]3O[C@@H]5CO[C@@H](C)O[C@H]5[C@H](O)[C@H]3O)[C@H]3COC(=O)[C@H]23)OCO4)cc(OC)c1O [Etoposide, etoposide, reference compound]",increase in caspase-3 relative to vehicle-treated cells,caspase 3,3.5 fold
same,increase in caspase 8 relative to vehicle-treated cells,caspase 8,greater than 3 fold
same,caspase 3 cleavage product (17/19 kDa) on western blot,cleaved caspase 3,clearly visible

# Reference: patent US20080015147A1, “Method for inhibiting neuronal cell death” (priority 2006, published 2008)
